Measurements reported in patent publication US20060069132A1, “Azolecarboxamide herbicides” (priority 2004, published 2006).

Tests used:
cocklebur = experiment: Test B pre-/postemergence herbicide test; type: in vivo, Xanthium strumarium
Summary of the method: (§1)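 Greenhouse pot assay with simultaneous preemergence (treated seed) and postemergence (2–18 cm seedlings) applications of surfactant-containing, non-phytotoxic solvent formulations. Response scored visually 13–15 days later on a 0–100 scale, 100 meaning complete control.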

wild oat = experiment: Test B postemergence herbicide test; type: in vivo, Avena fatua; details: scale 0 (no effect) to 100 (complete control)
Summary of the method: (§2)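 Each value is a visual 0–100 response rating taken against controls 13 to 15 days after treatment in the greenhouse. Plants received formulated chemical postemergence at the 1- to 4-leaf stage or, in flooded paddy, at the 2-leaf stage.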

large crabgrass = experiment: Test B pre-/postemergence herbicide test; type: in vivo, Digitaria sanguinalis
Summary of the method: (§3)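 Plants compared with untreated controls 13–15 days post-treatment and given a visual 0–100 injury score. Applications: preemergence to seeds; postemergence at 1- to 4-leaf (2–18 cm); paddy species flooded, 2-leaf stage. Vehicle non-phytotoxic, surfactant included.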

rice = experiment: Test B flooded paddy test; type: in vivo, Oryza sativa; details: 1000 g ai/ha, visual rating, scale 0 to 100 (0 no effect, 100 complete control), 13 to 15 days
Summary of the method: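 Formulated test chemicals went onto postemergence plants measuring 2 to 18 cm, at one to four leaves. For the paddy assay, species had reached two leaves. Scoring took place 13–15 days later by eye, relative to untreated plants, using 0 for no effect up to 100 for full control.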

giant foxtail = experiment: Test B pre-/postemergence herbicide test; type: in vivo, Setaria faberi
Summary of the method: as §3

[1] = test system: small flower umbrella sedge; experiment: Test B flooded paddy test; type: in vivo, Cyperus difformis; details: 1000 g ai/ha, visual rating, scale 0 to 100 (0 no effect, 100 complete control), 13 to 15 days
Summary of the method: (§4)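 Greenhouse test; postemergence application to plants at 1–4 leaves (2–18 cm); paddy species at 2 leaves; evaluated visually vs controls at 13–15 days; scale 0–100 (100 = complete control).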

corn = experiment: Test B pre-/postemergence herbicide test; type: in vivo, Zea mays
Summary of the method: as §3

barnyardgrass = experiment: Test B flooded paddy test; type: in vivo, Echinochloa crus-galli; details: 1000 g ai/ha, visual rating, scale 0 to 100 (0 no effect, 100 complete control), 13 to 15 days
Summary of the method: as §4

pigweed = experiment: Test B pre-/postemergence herbicide test; type: in vivo, Amaranthus retroflexus
Summary of the method: as §3

velvetleaf = experiment: Test B pre-/postemergence herbicide test; type: in vivo, Abutilon theophrasti
Summary of the method: as §3

morningglory = experiment: Test B pre-/postemergence herbicide test; type: in vivo, Ipomoea coccinea
Summary of the method: as §1

blackgrass = experiment: Test B postemergence herbicide test; type: in vivo, Alopecurus myosuroides; details: scale 0 (no effect) to 100 (complete control)
Summary of the method: as §4

Surinam grass = experiment: Test B pre-/postemergence herbicide test; type: in vivo, Urochloa decumbens
Summary of the method: as §3

wheat = experiment: Test B postemergence herbicide test; type: in vivo, Triticum aestivum; parameters: key to Wheat plant response rating: 0 = no effect, 100 = complete control; details: scale 0 (no effect) to 100 (complete control)
Summary of the method: as §2

lambsquarters = experiment: Test B pre-/postemergence herbicide test; type: in vivo, Chenopodium album
Summary of the method: as §3

[2] = Postemergence, 500 g ai/ha, visual rating after 13 to 15 days, scale 0 (no effect) to 100 (complete control)
[3] = postemergence, 125 g ai/ha, visual rating, scale 0 (no effect) to 100 (complete control)
[4] = preemergence, 125 g ai/ha, 0 to 100 scale, 0 is no effect, 100 is complete control
[5] = Postemergence, 500 g ai/ha, visual rating after 13 to 15 days
[6] = postemergence, 125 g ai/ha, visual rating
[7] = Preemergence, 500 g ai/ha, scale 0 to 100

C#CCOC(=O)c1cccc(NC(=O)c2cc(C(C)(C)C)nn2CC)c1 [Compound 84]
Plant response rating, Cocklebur (cocklebur; [2]): 100
Cocklebur plant response rating (cocklebur; [3]): 20
Plant response rating, Cocklebur (cocklebur; [4]): 0
Plant response rating, Oat, Wild (wild oat; [5]): 20
Oat, Wild plant response rating (wild oat; [6]): 20
Plant response rating, Crabgrass, Large (large crabgrass; [2]): 50
Crabgrass, Large plant response rating (large crabgrass; [7]): 0
Crabgrass, Large plant response rating (large crabgrass; [3]): 20
Plant response rating, Crabgrass, Large (large crabgrass; [4]): 0
Rice plant response rating (rice): 0
Plant response rating, Foxtail, Giant (giant foxtail; [2]): 10
Foxtail, Giant plant response rating (giant foxtail; [7]): 0
Foxtail, Giant plant response rating (giant foxtail; [3]): 10
Plant response rating, Foxtail, Giant (giant foxtail; [4]): 0
Sedge, Umbrella plant response rating [1]: 70
Plant response rating, Corn (corn; [2]): 20
Corn plant response rating (corn; [7]): 0
Corn plant response rating (corn; [3]): 10
Plant response rating, Corn (corn; [4]): 0
Barnyardgrass plant response rating (barnyardgrass): 10
Plant response rating, Pigweed (pigweed; [2]): 100
Pigweed plant response rating (pigweed; [3]): 80
Plant response rating, Pigweed (pigweed; [4]): 0
Plant response rating, Velvetleaf (velvetleaf; [2]): 100
Velvetleaf plant response rating (velvetleaf; [3]): 60
Plant response rating, Velvetleaf (velvetleaf; [4]): 0
Plant response rating, Morningglory (morningglory; [2]): 60
Morningglory plant response rating (morningglory; [3]): 30
Plant response rating, Morningglory (morningglory; [4]): 0
Plant response rating, Blackgrass (blackgrass; [5]): 10
Blackgrass plant response rating (blackgrass; [6]): 0
Plant response rating, Surinam Grass (Surinam grass; [2]): 60
Surinam Grass plant response rating (Surinam grass; [3]): 50
Plant response rating, Surinam Grass (Surinam grass; [4]): 0
Plant response rating, Wheat (wheat; [5]): 30
Wheat plant response rating (wheat; [6]): 20
Plant response rating, Lambsquarters (lambsquarters; [2]): 60
Lambsquarters plant response rating (lambsquarters; [3]): 0
Plant response rating, Lambsquarters (lambsquarters; [4]): 0
